In EP4603105A1, “PHARMACEUTICAL COMPOSITION CONTAINING CYCLIC COMPOUND HAVING SELECTIVE KRAS INHIBITORY EFFECT AGAINST HRAS AND NRAS” (CHUGAI SEIYAKU KABUSHIKI KAISHA, priority 2022, dated 2024):

What was measured:
[1] = target: HRAS wild-type protein (Homo sapiens, UniProt P01112); experiment: Binding to HRAS by surface plasmon resonance (SPR), KD and KD ratio to KRAS; details: ratio of KD for HRAS wild-type protein to KD for KRAS
Procedure, shortened: (§1)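 Recombinant RAS proteins bearing a biotinylated Avi tag and loaded with GDP served as the captured ligand, recaptured fresh every cycle. Binding responses were referenced to an uncoated surface and a buffer-only blank cycle. Dissociation constants were obtained by 1:1 model fitting at 30°C.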

[2] = target: GDP-bound NRAS wild-type protein (Homo sapiens, UniProt P01111); experiment: Binding to NRAS by surface plasmon resonance (SPR), KD and KD ratio to KRAS; details: ratio of KD for GDP-bound NRAS wild-type protein to KD for KRAS
Procedure, shortened: as §1

[3] = test system: human lung cancer strain NCI-H441; format: cell-based
Procedure, shortened: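 Signal came from […] measured per well once the reagent was added. Beforehand, cells were cultured at 37°C and 5% carbon dioxide on a compound series serially diluted in dimethyl sulfoxide.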

[4] = target: GDP-bound KRAS wild-type protein (Homo sapiens, UniProt P01116); experiment: Binding to KRAS by surface plasmon resonance (SPR), dissociation constant KD; details: 1:1 binding model
Procedure, shortened: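 SPR, 30°C: Avi-biotin RAS·GDP captured via Biotin CAPture (~100–300 RU); running buffer HBS pH 7.4, 1 mM DTT, 10 mM MgCl2, 0.01% Tween 20, 10 µM GDP, 4% DMSO. Single-cycle kinetics, 100 µL/min, 75 s injections; 1:1 model → KD.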

Chain of HRAS wild-type protein (P01112 whole entry): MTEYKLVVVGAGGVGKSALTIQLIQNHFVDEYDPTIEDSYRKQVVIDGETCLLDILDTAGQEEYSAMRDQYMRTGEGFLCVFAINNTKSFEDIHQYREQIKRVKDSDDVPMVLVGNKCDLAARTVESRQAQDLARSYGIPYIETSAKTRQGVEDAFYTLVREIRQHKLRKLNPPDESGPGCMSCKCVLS
Chain of GDP-bound NRAS wild-type protein (P01111 whole entry): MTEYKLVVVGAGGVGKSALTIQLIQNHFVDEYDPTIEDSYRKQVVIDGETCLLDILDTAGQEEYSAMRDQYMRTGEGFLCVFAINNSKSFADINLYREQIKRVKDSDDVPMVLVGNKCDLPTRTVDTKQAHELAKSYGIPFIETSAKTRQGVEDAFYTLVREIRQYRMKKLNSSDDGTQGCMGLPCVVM
Chain of GDP-bound KRAS wild-type protein (P01116 1-188 isoform P01116-2): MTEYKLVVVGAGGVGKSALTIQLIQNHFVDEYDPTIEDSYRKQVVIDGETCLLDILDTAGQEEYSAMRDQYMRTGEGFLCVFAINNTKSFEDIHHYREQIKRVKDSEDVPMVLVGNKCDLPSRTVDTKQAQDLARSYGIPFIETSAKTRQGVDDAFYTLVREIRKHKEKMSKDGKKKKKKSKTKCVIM

Row | Compound | HRAS /KRAS [1] | NRAS /KRAS [2] | IC50 [3] [nM] | Kd [4] [nM]
1 | CCCOC[C@H]1C(=O)N[C@@H]([C@@H](C)CC)C(=O)N(C)CC(=O)N(C)[C@H]2C/C=C\CCN(C2=O)[C@@H](Cc2ccc(C(F)(F)F)cc2)C(=O)N(C)CC(=O)N[C@@H](CCc2ccc(Cl)c(Cl)c2)C(=O)N2C[C@H](OCC)C[C@H]2C(=O)NC2(CCC2)C(=O)N(C)[C@@H](C2CCCC2)C(=O)N(C)[C@H](C(=O)N(C)CCC)CC(=O)N1C [PP2830] | A (a compound having 10 or more and less than 20 is denoted as A) | A (a compound having 10 or more and less than 20 is denoted as A) | 28.8 | 0.37
2 | CCCC[C@H]1C(=O)N[C@@H]([C@@H](C)CC)C(=O)N(C)CC(=O)N(C)[C@H]2C/C=C\CCN(C2=O)[C@@H](Cc2ccc(C(F)(F)F)cc2)C(=O)N(C)CC(=O)N[C@@H](CCc2ccc(C(F)(F)F)c(Cl)c2)C(=O)N2C[C@H](OCC)C[C@H]2C(=O)NC2(CCC2)C(=O)N(C)[C@@H](C2CCCC2)C(=O)N(C)[C@H](C(=O)N(C)CC)CC(=O)N1C [PP2841] | A (a compound having 10 or more and less than 20 is denoted as A) | A (a compound having 10 or more and less than 20 is denoted as A) | 8.3 | 0.086
3 | CCO[C@@H]1C[C@H]2C(=O)NC3(CCC3)C(=O)N(C)[C@@H](C3CCCC3)C(=O)N(C)[C@H](C(=O)N(C)CC)CC(=O)N(C)[C@@H](CC(C)C)C(=O)N[C@@H]([C@@H](C)CC)C(=O)N(C)CC(=O)N(C)[C@H]3C/C=C\CCN(C3=O)[C@@H](Cc3ccc(C(F)(F)F)cc3)C(=O)N(C)CC(=O)N[C@@H](CCc3ccc(Cl)c(Cl)c3)C(=O)N2C1 [PP2845] | A (a compound having 10 or more and less than 20 is denoted as A) | AA (a compound having 20 or more is denoted as AA) | 22.7 | 0.3
4 | CCO[C@@H]1C[C@H]2C(=O)NC3(CCC3)C(=O)N(C)[C@@H](C3CCCC3)C(=O)N(C)[C@H](C(=O)N(C)CC)CC(=O)N(C)[C@@H](CC(C)C)C(=O)N[C@@H]([C@@H](C)CC)C(=O)N(C)CC(=O)N(C)[C@H]3C/C=C\CCN(C3=O)[C@@H](Cc3ccc(C(F)(F)F)cc3)C(=O)N(C)CC(=O)N[C@@H](CCc3ccc(C(F)(F)F)c(Cl)c3)C(=O)N2C1 [PP2847] | A (a compound having 10 or more and less than 20 is denoted as A) | A (a compound having 10 or more and less than 20 is denoted as A) | 7.3 | 0.083
5 | CCC[C@H]1C(=O)N[C@@H]([C@@H](C)CC)C(=O)N(C2CC2)CC(=O)N(C)[C@H]2C/C=C\CCN(C2=O)[C@@H](Cc2ccc(C)cc2)C(=O)N(C)CC(=O)N[C@@H](CCc2ccc(C(F)(F)F)c(CC)c2)C(=O)N2C[C@H](OCC)C[C@H]2C(=O)NC2(CC(C)(C)C2)C(=O)N(C)[C@@H](C2CCCC2)C(=O)N(C)[C@H](C(=O)N(C)C)CC(=O)N1C [PP2870] | A (a compound having 10 or more and less than 20 is denoted as A) | A (a compound having 10 or more and less than 20 is denoted as A) | 11.5 | 0.58
6 | CCC[C@H]1C(=O)N[C@@H]([C@@H](C)CC)C(=O)N(C)CC(=O)N(C)[C@H]2C/C=C\CCN(C2=O)[C@@H](Cc2ccc(C)cc2)C(=O)N(C)CC(=O)N[C@@H](CCc2ccc3sc(C)c(C)c3c2)C(=O)N2C[C@H](OCC)C[C@H]2C(=O)NC2(CC(C)(C)C2)C(=O)N(C)[C@@H](C2CCCC2)C(=O)N(C)[C@H](C(=O)N(C)C)CC(=O)N1C [PP2891] | B (a compound having 3 or more and less than 10 is denoted as B) | A (a compound having 10 or more and less than 20 is denoted as A) | 17.2 | 0.33
